Results from PubChem BioAssay (NCI).
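Following 48 hours of exposure in 96-well plates, responses at five concentrations were used to interpolate endpoints linearly. TGI denotes the concentration required for complete inhibition of growth.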

How the values were obtained:
Test in all cases: NCI tumour cell line growth inhibition, 48 h
[1] = system: NCI-H226 lung
[2] = system: CCRF-CEM leukemia
[3] = system: A549 NSCLC
[4] = system: SK-MEL-2 melanoma
[5] = system: EKVX NSCLC
[6] = system: MCF7 breast
[7] = system: SN12C renal
[8] = system: NCI-H460 lung
[9] = system: PC-3 prostate
[10] = system: DU-145 prostate
[11] = system: M14 melanoma
[12] = system: HCC-2998 colon
[13] = system: MOLT-4 leukemia
[14] = system: A498 renal
[15] = system: SK-MEL-5 melanoma
[16] = system: OVCAR-8 ovarian
[17] = system: OVCAR-5 ovarian
[18] = system: NCI-H23 lung
[19] = system: IGROV1 ovarian
[20] = system: SK-MEL-28 melanoma
[21] = system: UO-31 renal
[22] = system: UACC-62 melanoma
[23] = system: K-562 leukemia
[24] = system: CAKI-1 renal
[25] = system: SF-539 CNS
[26] = system: OVCAR-3 ovarian
[27] = system: T-47D breast
[28] = system: NCI/ADR-RES ovarian
[29] = system: 786-0 renal
[30] = system: SNB-75 CNS
[31] = system: BT-549 breast
[32] = system: SF-295 CNS
[33] = system: RPMI-8226 leukemia
[34] = system: SR leukemia
[35] = system: MDA-N
[36] = system: OVCAR-4 ovarian
[37] = system: COLO 205 colon
[38] = system: SW-620 colon
[39] = system: LOX IMVI melanoma
[40] = system: ACHN renal
[41] = system: HOP-62 NSCLC
[42] = system: HOP-92 NSCLC
[43] = system: HCT-15 colon
[44] = system: MDA-MB-231 breast
[45] = system: HT29 colon
[46] = system: HCT-116 colon
[47] = system: RXF 393 renal
[48] = system: U251 CNS
[49] = system: KM12 colon
[50] = system: UACC-257 melanoma
[51] = system: MDA-MB-435
[52] = system: SNB-19 CNS

Measured: TGI

CC(C)c1cc(=O)[nH]c2cc(N)ccc12
> 100 µM: all assays above
